Series [1] concerns HREC. The series can be described thus: BrdU incorporation (DNA synthesis) in HRECs. The series is classed as cell-based, human. As to conditions: for attenuation of NECA-stimulated BrdU incorporation by HRECs: XAC 10 μM, CPX 20 nM, SCH58261 60 nM. The procedure:
(§1) The subtype of adenosine receptor (A2B) that mediates the proliferative effect of adenosine on HREC was determined by the following studies. […] In contrast, neither the A2A adenosine receptor agonist CGS21680 (2-p-(2-carboxyethyl) phenethylamino-5′-N-ethylcarboxamidoadenosine) at concentrations ranging from 10 nM to 10 μM, nor the A1 adenosine receptor agonist CPA (N^6-cyclopentyladenosine) at concentrations ranging from 10 nM to 10 μM increased BrdU incorporation by HRECs. […] In contrast, neither the selective A1 adenosine receptor antagonist CPX (8-cyclopentyl-1,3-dipropylxanthine) at 20 nM, nor the selective A2A adenosine receptor antagonist SCH58261 (5-amino-7-(2-phenylethyl)-2-(2-furyl)-pyrazolo(4,3-E)-1,2,4-trizolo(1,5-c) pyrimidine) at 60 nM attenuated the stimulatory effect of NECA on BrdU incorporation by HRECs. These findings indicate that the proliferative effects of NECA are mediated by the A2B adenosine receptor in HREC in culture (Table 3).
A general note: Dividing cells build labelled thymidine or BrdU into new DNA.

Series [2] concerns HREC. Nature of the series: cAMP content of intact HRECs. The series is classed as cell-based, human. As to conditions: for inhibition of NECA-induced increase in cAMP content in HRECs: NECA 10 μM. The source says:
The cAMP content of intact HRECs following treatment with adenosine receptor agonists and antagonists was next examined. […] The effect of selective A1 and A2A adenosine receptor antagonists on NECA-induced accumulation of cAMP was also examined.

Series [3] relates to HREC. The series can be described thus: HREC proliferation, cell count. It counts as cell-based, human. As to conditions: agonist alone, 48 hr. The procedure:
as §1
The data for cell counts were consistent with those for BrdU incorporation. […] These compounds, like XAC, blocked the proliferative effects of NECA as measured by cell counts, supporting that the proliferative effects of NECA on HREC are mediated by the adenosine A2B receptor (Table 3).

The subject of series [4] is HREC. The series can be described thus: ERK/MAPK activation in HREC, Western blot. As to conditions: for effect on NECA-stimulated ERK activation: HREC pretreated with antagonist or inhibitor, then NECA. It counts as cell-based, human. The method, then:
HREC were serum-starved for 24 hr and pre-treated for 20 min with 1 U/mL adenosine deaminase prior to adding NECA. Activated ERK/MAPK was visualized on Western blots by enhanced chemiluminescence using EC10 monoclonal antibody;
HRECs were serum-starved for 24 hr and pre-treated with adenosine deaminase (ADA, 1 U/mL) for 20 min, incubated with the antagonists in the presence of ADA for 10 min. NECA (1 nM-10 μM, 10 min) was used to activate ERK.
In order to determine the intracellular signaling pathways activated by NECA that regulate ERK activity, we pretreated cells for 30 min with the ERK/MPAK kinase (MEK) inhibitor PD98059 or the PKA inhibitor H-89 and stimulated with NECA for 5 min.
Cells were pre-treated with both antagonists for 10 min and stimulated with increasing concentrations of NECA.
(A western blot detects proteins with antibodies after separation by electrophoresis.)

The subject of series [5] is HREC. The series can be described thus: HREC chemotaxis. It counts as cell-based, human. The source says: The role of the A2B receptor was further characterized by examining the effects of the A2B antagonists JW V108 and Enprofylline on HREC chemotaxis, capillary tube formation and signal transduction pathways following stimulation with the adenosine analogue NECA.

The test system of series [6] is HREC. The series can be described thus: CREB phosphorylation at Ser133 in HREC, western blot. It counts as cell-based, human. The conditions noted are these: HREC pretreated. An excerpt: Phosphorylation of cAMP response element binding protein (CREB) at Ser^133 was examined following NECA stimulation in order to determine whether activation of cAMP pathways by NECA occurred independently of ERK activation. Cells were pretreated with PD98059 or H-89 and assayed for active CREB by western blot.

In series [7] the test system is adenosine A2b receptor mRNA. The series can be described thus: Ribozyme kinetic analysis, A2B. It counts as biochemical. An excerpt:
(§2) The chief characteristic of diabetic retinopathy is retinal neovascularization-the pathologic spread of blood vessels in the eye. Unique ribozymes have been developed which target the mRNAs that encode various proteins involved in this process. These include ribozymes directed at the wild-type mRNA for the adenosine A2b receptor, for IGF-I (insulin-like growth factor-1) receptor, for inducible nitric oxide synthase (iNOS), and for several integrins implicated in retinal neovascularization (e.g., alpha1, alpha3, alphaV). Also shown in Table 7 are the analyses of P347S ribozymes, that are specific for another mutant form of the rod opsin polypeptide.

Series [8] has as its system IGF-I (insulin-like growth factor-1) receptor mRNA. Nature of the series: Ribozyme kinetic analysis, IGF1. It counts as biochemical. As to conditions: target GUACGUCUUCCAU
Source text: as §2

Series [9] has as its system P347S rod opsin mRNA target UGGCCUCGGCCUA
Nature of the series: Ribozyme kinetic analysis, P347S human. It counts as biochemical. As to conditions: mean.
Source text: as §2

Series [10] deals with P347S rod opsin mRNA target AGGCGUCAGCCUA
The series can be described thus: Ribozyme kinetic analysis, P347S pig. It counts as biochemical.
Source text: as §2

The next series relates to alpha1 integrin mRNA. Nature of the series: Ribozyme kinetic analysis, alpha 1 integrin. It counts as biochemical.
Source text: as §2

Another series relates to alpha3 integrin mRNA. Nature of the series: Ribozyme kinetic analysis, alpha 3 integrin. It counts as biochemical.
Source text: as §2

The subject of a further series is alphaV integrin mRNA. The series can be described thus: Ribozyme kinetic analysis, alpha V integrin. The series is classed as biochemical.
Source text: as §2

Where [11] appears, read: per experiment, target CAUGUCUCUUUG
The mark [12] stands for this setting: per experiment, Rz 1 target AGAUGUCUAUAAG, Rz 2 target GAGAGUCUCAUGA
Setting [13] is: per experiment, Rz 1 target CUAUGCCUUCAUG, Rz 2 target CGCUGUCUUCCAC
Where [14] appears, read: per experiment, Rz 1 target GCGCGUCUUCCCG, Rz 2 target ACUGGUCUUCUAC

Several values for one entry are separate records, joined by “and”; a condition that tells them apart may be missing. Equal values may be shown once. Entries after “also recorded” stand apart in the source; their conditions may differ.

Regarding `CCCn1c(=O)c2[nH]c(C3CCCC3)nc2n(CCC)c1=O` [CPX, 8-cyclopentyl-1,3-dipropylxanthine], the “attenuation of NECA-stimulated BrdU incorporation by HRECs” value with HREC [1] is “neither”. In the series with HREC [2], the “inhibition of NECA-induced increase in cAMP content in HRECs” value is on record as “not signficantly inhibited”.
A word on the EC50: it is the concentration needed to bring the measured effect to its halfway point. For the compound `CCNC(=O)[C@H]1O[C@@H](n2cnc3c(N)ncnc32)[C@H](O)[C@@H]1O` [NECA], the “increase in HREC number” value in the series with HREC [3] was “concentration-dependent increase in HREC number”. In addition, in the series with HREC [1] (agonist alone, 48 hr, CGS21680 and CPA 10 nM to 10 μM), the “increase of BrdU incorporation (DNA synthesis) by HRECs” value is listed as “concentration-dependent increase of DNA synthesis”. Also, the half-maximal effective concentration (EC50) in the series with HREC [2] (intact HRECs, read-out: EC50 for increase of cAMP content of HRECs) turned out to be 24 µM. Moreover, in the series on HREC [4] (HREC, agonist alone), the “ERK activation by agonist” value is listed as “dose-dependent increase in ERK activation; also recorded: transient activation of ERK”. Further, the “HREC chemotaxis induced by agonist” value with HREC [5] is on record as “induced HREC chemotaxis in a concentration-dependent manner”.
Consider `COc1cccc(-c2cc(=O)c3ccccc3o2)c1N` [PD98059], for which the “effect on NECA-stimulated ERK activation” value with HREC [4] is “abolished ERK activation”. Further, the “CREB activation (phosphorylation) following NECA stimulation” value with HREC [6] is “did not alter CREB activation”.
Take `O=S(=O)(NCCNC/C=C/c1ccc(Br)cc1)c1cccc2cnccc12` [Ribozyme H-89]: the “effect on NECA-stimulated ERK activation” value in the series with HREC [4] is “did not block”. Also, in the series with HREC [4] (HREC, CGS 1-10 μM, H-89 30 min pretreatment), the “basal ERK activation” value was “increased basal ERK activation”. Besides, the “CREB activation (phosphorylation) following NECA stimulation” value in the series on HREC [6] was “blocked CREB phosphorylation”.
Take `Nc1nc2c(cnn2CCc2ccccc2)c2nc(-c3ccco3)nn12` [SCH58261, 5-amino-7-(2-phenylethyl)-2-(2-furyl)-pyrazolo(4,3-E)-1,2,4-trizolo(1,5-c) pyrimidine]: the “attenuation of NECA-stimulated BrdU incorporation by HRECs” value in the series with HREC [1] is “neither”. In addition, the “inhibition of NECA-induced increase in cAMP content in HRECs” value with HREC [2] is given as “not signficantly inhibited”.
As a reminder, the Km is the concentration of substrate that gives half-maximal velocity. Usually Vmax stands for the rate approached at saturating substrate. As for “A2B Rz 1: hammerhead ribozyme CAAAGACUGAUGAGCCGUUCGCGGCGAAACAUGU (SEQ ID NO:90), adenosine A2b receptor mRNA (RNA, backbone not given here)”, in series [7] (mean), the Km stood at 4.35 µM, the Vmax came out at 541.7 nM/min and the kcat is given as 36.1 min − 1. Further, in [7] (setting [11]), the Km is 5.07 µM and 3.63 µM; the maximal velocity (Vmax) was 666.7 nM/min and 416.7 nM/min; the kcat was 44.4 min − 1 and 27.8 min − 1.
With “IGF1 Rz 2: ribozyme GGAACUGAUGAGCCGUUCGCGGCGAAACGUAC (SEQ ID NO:101), IGF-I receptor mRNA (RNA, backbone not given here)”, in series [8], the Km worked out at 9.76 µM, the maximal velocity (Vmax) was determined as 27.6 nM/min and the kcat stood at 18.4 min − 1.
Consider “P347S human: ribozyme UAGGCCCUGAUGAGCCGCUUCGGCGGCAAAGGCCA (SEQ ID NO:103), P347S mutant rod opsin mRNA (listed as RNA, chemistry not given here)”, for which, in [9], the Km was determined as 41.9 µM, the Vmax stood at 0.00135 nM/min and the kcat was 1.10E−04 min − 1.
Consider “P347S pig: ribozyme UAGGCUCUGAUGAGCCGCUUCGGCGGCAAACGCCU (SEQ ID NO:102), P347S mutant rod opsin mRNA (listed as RNA, chemistry not given here)”, for which, in [10] (mean), the Km was determined as 2.05 µM, the Vmax was determined as 7.3 nM/min and the kcat stood at 1.5 min − 1. Further, in series [10] (per experiment), the Km was 1.65 µM and 1.68 µM and 2.84 µM; the kcat is 1.8 min − 1 and 2.2 min − 1 and 1.3 min − 1 and 1.1 min − 1 and 1.2 min − 1.
Regarding “alpha 1 Rz 1: ribozyme CUUAUACUGAUGAGCCGUUCGCGGCGAAACAUCU (SEQ ID NO:96), alpha1 integrin mRNA (RNA, backbone not given here)”, in the series with alpha1 integrin mRNA (mean), the Michaelis-Menten constant (Km) worked out at 25.6 µM, the Vmax is 57.0 nM/min and the kcat came out at 3.8 min − 1. For the same compound, in the series on alpha1 integrin mRNA (setting [12]), the Vmax is 61.7 nM/min and 52.4 nM/min; the kcat was 4.1 min − 1 and 3.5 min − 1.
With “alpha 1 Rz 2: ribozyme UCAUGACUGAUGAGCCGUUCGCGGCGAAACUCUC (SEQ ID NO:97), alpha1 integrin mRNA (RNA, backbone not given here)”, in the series on alpha1 integrin mRNA (mean), the Km is 42.2 µM, the Vmax is reported as 42.2 nM/min and the kcat is listed as 2.9 min − 1. Besides, in the series with alpha1 integrin mRNA (setting [12]), the Km is 30.6 µM and 53.8 µM; the Vmax is 31.0 nM/min and 53.5 nM/min; the kcat is 2.1 min − 1 and 3.6 min − 1.
On to “alpha 3 Rz 1: ribozyme CAUGAACUGAUGAGCCGUUCGCGGCGAAACAUAG (SEQ ID NO:92), alpha3 integrin mRNA (RNA, backbone not given here)”, for which, in the series with alpha3 integrin mRNA (mean), the Michaelis-Menten constant (Km) was 4.16 µM, the Vmax turned out to be 6.2 nM/min and the kcat worked out at 0.4 min − 1. In the series with alpha3 integrin mRNA (setting [13]), the Michaelis-Menten constant (Km) was 3.62 µM and 4.69 µM; the Vmax was 5.4 nM/min and 6.9 nM/min; the kcat was 0.4 min − 1 and 0.5 min − 1.
Turning to “alpha 3 Rz 2: ribozyme GUGGAACUGAUGAGCCGUUCGCGGCGAAACAGCG (SEQ ID NO:93), alpha3 integrin mRNA (RNA, backbone not given here)”, in the series with alpha3 integrin mRNA (mean), the Km is 1.45 µM, the Vmax is 2.5 nM/min and the kcat was determined as 0.2 min − 1. Also, in the series on alpha3 integrin mRNA (setting [13]), the Michaelis-Menten constant (Km) was 1.66 µM and 1.24 µM; the Vmax was 2.8 nM/min and 2.2 nM/min; the kcat was 0.2 min − 1.
Regarding “alpha V Rz 1: ribozyme CGGGAACUGAUGAGCCGUUCGCGGCGAAACGCGC (SEQ ID NO:98), alphaV integrin mRNA (RNA, backbone not given here)”, in the series on alphaV integrin mRNA (mean), the Km came to 5.2 µM, the Vmax stood at 33.4 nM/min and the kcat was 2.2 min − 1. Further, in the series with alphaV integrin mRNA (setting [14]), the Km was 4.98 µM and 5.41 µM; the maximal velocity (Vmax) is 30.5 nM/min and 36.2 nM/min; the kcat was 2.0 min − 1 and 2.4 min − 1.
As for “alpha V Rz 2: ribozyme GUAGAACUGAUGAGCCGUUCGCGGCGAAACCAGU (SEQ ID NO:99), alphaV integrin mRNA (RNA, backbone not given here)”, in the series with alphaV integrin mRNA (mean), the Km came out at 11.3 µM, the Vmax is 285.7 nM/min and the kcat worked out at 19.1 min − 1. Moreover, in the series on alphaV integrin mRNA (setting [14]), the Km was 8.54 µM and 14 µM; the maximal velocity (Vmax) was 238.1 nM/min and 333.3 nM/min; the kcat is 15.9 min − 1 and 22.2 min − 1.

Values taken from patent US20050096282A1, “Adeno-associated virus-delivered ribozyme compositions and methods for the treatment of retinal diseases” (priority 1997, published 2005).
